Results on 2 compounds are retold here after ChEMBL document CHEMBL1147811, “Synthesis of EF24-tripeptide chloromethyl ketone: a novel curcumin-related anticancer drug delivery system” (J Med Chem, 2006).

A value given as a limit tells only on which side of the number the result lay.

Data set [1] deals with RPMI-7951. Briefly: Cytotoxicity against human TF expressing RPMI7951 cell line at 2 uM. The format is functional, cell-based.
Data set [2] deals with Melanocyte. Briefly: Cytotoxicity against human non-TF expressing melanocytes at 4 uM. The format is functional, cell-based.
Data set [3] has as its system RPMI-7951. Briefly: Viability of human TF expressing RPMI7951 cell line. The format is cell-based.
The subject of data set [4] is Melanocyte. Briefly: Viability of human non-TF expressing melanocytes. It counts as cell-based.
A further data set has as its system MDA-MB-231. Briefly: Viability of human TF expressing MDA-MB-231 cell line. The format is cell-based.
Data set [5] can be described thus: Viability of human non-TF expressing MCF10 cell line. The format is cell-based. Conditions: MCF10 cells (non-TF expressing); call rule not given here.

`O=C1/C(=C/c2ccccc2F)CNC/C1=C\c1ccccc1F`: the Activity entry in the data set on RPMI-7951 [1] and in the data set with Melanocyte [2] was “Toxic” in each case.

As for `N=C(N)NCCC[C@H](NC(=O)[C@H](Cc1ccccc1)NC(=O)[C@H](Cc1ccccc1)NC(=O)CCC(=O)N1C/C(=C\c2ccccc2F)C(=O)/C(=C/c2ccccc2F)C1)C(=O)CCl.O=C(O)C(F)(F)F`, the Activity result with RPMI-7951 [3], in the data set on Melanocyte [4] and in the data set with MDA-MB-231 was “Not Active” throughout. The viability in data set [5] was > 95%.

By viability is commonly meant a read-out of living cells in per cent, often relative to untreated cells. Read a high viability as better survival.
